Four compounds from patent US20070112056A1, “Stable modifications of tegaserod hydrogen maleate” (priority 2003, published 2007) can be followed below.

Common to all, as to type: physicochemical
Data set [1] in a line: Stability of the crystal form when exposed to heat (DSC thermogram). On the procedure: Characteristic for the modification A is the thermogram in differential scanning calorimetry (DSC). It has an endothermic melting peak at about 190° C. The melting enthalpy of the endothermic signal Is 130 J/g±5 J/g. The measurement Is carried out on a Perkin Elmer DSC 7 in a crimped pan with a heating rate of 10 K/minute., The typical sample quantity is about 2 mg. As a typical distinguishing feature compared with the modification B and the acetone solvate, ethanol solvate, the thermogram of the modification A has no further thermal signal (see Table 1a below):
It has an endothermic peak in addition to the one at about 190° C., at 97° C. and melting/crystallization signals at about 181° C. […] The measurement is done as described above.
On the technique in general: DSC measures the heat that a sample takes up or gives off during a temperature scan.

Data set [2] in a line: Conversion between crystal forms / thermodynamic stability.
Data set [3] in a line: Stability of the crystal form in the presence of water.
The nature of another data set: Solubility.
The mark [4] stands for this setting: compared to modification B and the ethanol, acetone solvate.

For the compound `CCCCCNC(=N)N/N=C/c1c[nH]c2ccc(OC)cc12.O=C(O)/C=C\C(=O)O` [modification A, modification A of the hydrogen maleate salt of 3-(5-methoxy-1H-indol-3-yl-methylene)-N-pentylcarbazimidamide], the “stability when exposed to heat” value in data set [1] (setting [4]) is given as “more stable when exposed to heat”. The thermodynamic stability result in data set [2] (relative to modification B) is listed as “thermodynamically more stable than modification B”. Besides, the “stability in the presence of water” value in data set [3] (setting [4]) is “more stable In the presence of water”.
Take `CCCCCNC(=N)N/N=C/c1c[nH]c2ccc(OC)cc12.O=C(O)/C=C\C(=O)O` [modification B]: the “conversion of crystal form when heating is applied” value in data set [1] (DSC, heating rate 10 K/minute) was “converts into modification A”. In addition, the “conversion of crystal form” value in data set [2] (under certain conditions, e.g. heat or water containing organic solvents) is reported as “completely or partly be converted into modification A”.
For the compound `CCCCCNC(=N)N/N=C/c1c[nH]c2ccc(OC)cc12.O=C(O)/C=C\C(=O)O` [solvate with acetone], the “conversion of crystal form by equilibration with water” value in data set [3] (equilibration with water) is given as “can be transformed into modification A”.
Regarding `CCCCCNC(=N)N/N=C/c1c[nH]c2ccc(OC)cc12.O=C(O)/C=C\C(=O)O` [tegaserod hydrogen maleate, 3-(5-methox-1H-indol-3-yl-methylene)-N-pentylcarbazimidamide hydrogen maleate], the solubility entry in “Solubility” is reported as “poor”.
